# Laboratory results from patent US5852007A, “Cysteine and serine protease inhibitors containing D-amino acid at the P2 position, methods of making same, and methods of using same” (priority 1997, dated 1998).
# pIC50: −log10 of the molar value. Where two headings read alike, the source gives them in different places. Square brackets hold non-standard residues; d marks the D form. Peptide text beside a SMILES is read from it. * marks the point of attachment. Abu = CC[C@H](N)C(=O)O; Bn = c1ccc(C*)cc1; Ms = CS(=O)(=O)*
# Assays:
# Assay type in all cases: biochemical
# [1] = target: T1, cathepsin L (Homo sapiens, UniProt P07711); experiment: Inhibition of cathepsin L; conditions: for inhibition at 1 µM / Cat L % I @ 1 uM: Table III; for inhibition at 1 µM: read-out: Cat L % I @ 1 uM; for pIC50: Table II, read-out: Cat L IC50
# T1 construct: purchased Calbiochem 219402
# Protocol: (§1) Additionally,the order of reagents added to the plate was altered because both enzymes are constitutively active. Following inhibitor addition to the plates, appropriate 2× concentrated stock dilutions of the enzyme preparations were made in assay buffer and 100 μl added to each well. The assay was initiated by addition of 100 μl of 2× concentrated stock dilution of substrate in assay buffer.
# [2] = target: T2, α-chymotrypsin (Bos taurus, UniProt P00766); experiment: Inhibition of α-chymotrypsin; conditions: for inhibition at 10 µM: read-out: Chymotrypsin % I @ 10 uM
# T2 construct: purchased Sigma Chem. Co. C-3142
# Protocol: Additionally, because α-chymotrypsin is not a calcium sensitive enzyme and is constitutively active, following addition of inhibitor stocks to the 96 well plates, 100 μl of a 2-fold concentrated stock of enzyme in dilution buffer was first added and the reaction started by addition of 100 μl of a 2-fold concentrated stock of substrate in assay buffer. Substrate hydrolysis was monitored every 5 minutes up to 30 minutes using a Fluoroskan II ([…]).
# [3] = target: T3, thrombin (Homo sapiens, UniProt P00734); experiment: Inhibition of thrombin; conditions: 10 uM; for inhibition at 10 µM: read-out: Thrombin % I @ 10 uM
# T3 construct: purchased Sigma Chem. Co. T-7009
# [4] = target: T4, Recombinant human calpain I (Homo sapiens, UniProt P07384); experiment: Inhibition of calpain I activity
# T4 construct: made in house
# T4 sequence (P07384 1-714): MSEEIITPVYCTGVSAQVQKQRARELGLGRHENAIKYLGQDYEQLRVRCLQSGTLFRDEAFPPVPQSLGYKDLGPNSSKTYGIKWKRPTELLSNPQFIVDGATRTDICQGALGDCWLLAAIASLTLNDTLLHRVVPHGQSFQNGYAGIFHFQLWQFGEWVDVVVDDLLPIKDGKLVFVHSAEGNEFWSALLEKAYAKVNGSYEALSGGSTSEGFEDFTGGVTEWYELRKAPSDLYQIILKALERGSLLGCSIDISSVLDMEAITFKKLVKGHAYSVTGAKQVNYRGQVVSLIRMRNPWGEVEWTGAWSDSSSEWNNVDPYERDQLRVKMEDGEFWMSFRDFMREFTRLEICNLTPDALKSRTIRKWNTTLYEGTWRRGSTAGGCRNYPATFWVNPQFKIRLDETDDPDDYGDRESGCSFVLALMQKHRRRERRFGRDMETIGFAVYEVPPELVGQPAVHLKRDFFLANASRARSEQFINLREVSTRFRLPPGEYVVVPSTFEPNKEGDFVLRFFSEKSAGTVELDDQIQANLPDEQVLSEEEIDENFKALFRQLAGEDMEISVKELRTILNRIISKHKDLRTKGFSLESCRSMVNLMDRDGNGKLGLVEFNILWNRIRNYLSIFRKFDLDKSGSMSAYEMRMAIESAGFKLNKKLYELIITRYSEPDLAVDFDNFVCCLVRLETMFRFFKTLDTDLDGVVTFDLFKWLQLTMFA
# Protocol: To evaluate inhibitory activity, stock solutions (40 times concentrated) of exemplary compounds of the invention were prepared in 100% anhydrous DMSO and 5 μL of each inhibitor preparation were aliquoted into each of three wells of a 96-well plate. Recombinant human calpain I, prepared by the method of Meyer et al. (Biochem. […] To start the reaction, 20 μL of 50 mM CaCl2 in assay buffer was added to all wells of the plate, excepting three, which were used as background signal baseline controls. Substrate hydrolysis was monitored every 5 minutes for a total of 30 minutes. […] Inhibition of calpain I activity was calculated as the percent decrease in the rate of substrate hydrolysis in the presence of inhibitor (VI) relative to the rate in its absence (VO). Comparison between VO and VI was made within the linear range for substrate hydrolysis. For screening, compounds were tested at 10, 1.0, and 0.1 μM. […] The results were plotted as % inhibition versus log inhibitor concentration and the IC50 was calculated from linear regression of the data. Apparent second order rate constants were determined from analysis of reaction progress curves under pseudo-first order conditions. Each determination represents the means of three or more independent single cuvette analyses continually monitored via a Perkin-Elmer LS50B spectrofluorimeter. The rate of inhibition of hydrolysis was obtained by fitting the curve to the exponential equation (1): […]
# [5] = target: T5, cathepsin B (Homo sapiens, UniProt P07858); experiment: Inhibition of cathepsin B; conditions: for inhibition at 1 µM: read-out: Cat B % I @ 1 uM; for pIC50: read-out: Cat B IC50
# T5 construct: purchased Calbiochem 219364
# Protocol: as §1
# T1 sequence (P07711 114-288 limits assumed): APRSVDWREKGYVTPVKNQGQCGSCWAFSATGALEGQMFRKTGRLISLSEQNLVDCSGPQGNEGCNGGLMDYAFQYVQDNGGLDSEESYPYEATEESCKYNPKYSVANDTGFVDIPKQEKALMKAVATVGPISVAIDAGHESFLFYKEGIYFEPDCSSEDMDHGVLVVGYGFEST
# T1 sequence (P07711 292-333 limits assumed): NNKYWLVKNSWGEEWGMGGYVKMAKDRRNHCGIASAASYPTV
SMILES,inhibition at 1 µM [1],pIC50 ([4]; Table III),inhibition at 0.1 µM ([4]; Table III),inhibition at 1 µM ([5]; Table III),"inhibition at 10 µM ([2]; Table III, 10 uM)",inhibition at 10 µM ([3]; Table III),also measured
"CS(=O)(=O)N1Cc2ccccc2CC1C(=O)N[C@H](C=O)Cc1ccccc1 (single isomer, unassigned) [Compound 95]",100%,6.56,–,–,–,–,"Chymotrypsin % I @ 10 uM ([2]; Table III, 10 uM): 0%; Thrombin % I @ 10 uM ([3]; Table III): 1%; Calpain % I @ 0.1 uM ([4]; Table III): 17%; Cat B % I @ 1 uM ([5]; Table III): 38%"
"CS(=O)(=O)N1Cc2ccccc2CC1C(=O)N[C@H](C=O)Cc1ccccc1 (single isomer, unassigned) [Compound 96]",–,6.76,–,–,–,–,"Cat L % I @ 1 uM [1]: 100%; Chymotrypsin % I @ 10 uM ([2]; Table III, 10 uM): 14%; Thrombin % I @ 10 uM ([3]; Table III): 0%; Calpain % I @ 0.1 uM ([4]; Table III): 49%; Cat B % I @ 1 uM ([5]; Table III): 90%"
"CS(=O)(=O)NC(CCSCc1ccccc1)C(=O)N[C@H](C=O)Cc1ccccc1 (single isomer, unassigned) [Compound 107]",100%,7.17,63%,97%,–,–,"Chymotrypsin % I @ 10 uM ([2]; Table III, 10 uM): 11%; Thrombin % I @ 10 uM ([3]; Table III): 2%"
"CS(=O)(=O)NC(CCSCc1ccccc1)C(=O)N[C@H](C=O)Cc1ccccc1 (single isomer, unassigned) [Compound 108]",–,7.60,–,–,–,–,"Cat L % I @ 1 uM [1]: 100%; Chymotrypsin % I @ 10 uM ([2]; Table III, 10 uM): 0%; Thrombin % I @ 10 uM ([3]; Table III): 0%; Calpain % I @ 0.1 uM ([4]; Table III): 83%; Cat B % I @ 1 uM ([5]; Table III): 96%"
"CC(C)(C)OC(=O)N[C@H](CC(=O)N1CCc2ccccc2C1)C(=O)N[C@H](C=O)Cc1ccccc1 [Compound 8, (R)-2-THIQ-C(=O)CH2 CH(NHBoc)C(=O)-Phe--H]",–,–,–,–,–,–,"pIC50 [1]: 4.62; inhibition at 10 µM ([2]; Table II, 10 uM): 32%; inhibition at 10 µM ([3]; Table II): 0%; pIC50 ([4]; Table II): ~4.70"
"CC(=O)N[C@H](CC(=O)N1CCc2ccccc2C1)C(=O)N[C@H](C=O)Cc1ccccc1 [Compound 9, 2-THIQ-C(=O)CH2 CH(NHC(=O)CH3)C(=O)-Phe--H]",–,–,–,–,–,–,"pIC50 [1]: 5.70; inhibition at 10 µM ([2]; Table II, 10 uM): 2%; inhibition at 10 µM ([3]; Table II): 0%; pIC50 ([4]; Table II): 7.08; pIC50 ([5]; Table II): 4.96"
"CS(=O)(=O)N[C@H](CC(=O)N1CCc2ccccc2C1)C(=O)N[C@H](C=O)Cc1ccccc1 [Compound 14, 2-THIQ-C(=O)CH2 CH(NHS(=O)2 CH3)C(=O)-Phe--H]",–,–,–,–,–,–,"pIC50 [1]: 7.25; inhibition at 10 µM ([2]; Table II, 10 uM): 11%; inhibition at 10 µM ([3]; Table II): 0%; pIC50 ([4]; Table II): 7.70; pIC50 ([5]; Table II): 6.84"
"CC(=O)N[C@H](CSCc1ccccc1)C(=O)N[C@H](C=O)Cc1ccccc1 [Compound 25, BnS--CH2 CH(NHC(=O)CH3)C(=O)-Phe--H] (Ac-[dC](Bn)-Phe-aldehyde)",–,–,–,–,–,–,"pIC50 [1]: 7.32; inhibition at 10 µM ([2]; Table II, 10 uM): 3%; inhibition at 10 µM ([3]; Table II): 0%; pIC50 ([4]; Table II): 7.59; pIC50 ([5]; Table II): 5.30"
CC[C@@H](C=O)NC(=O)[C@@H](COCc1ccccc1)NS(C)(=O)=O [Compound 41] (Ms-[dS](Bn)-[Abu]-aldehyde),100%,7.30,67%,42%,0%,2%,–
CC(=O)N[C@H](COCc1ccccc1)C(=O)N[C@H](C=O)Cc1ccccc1 [Compound 42],96%,7.77,87%,90%,14%,7%,–
C[C@H](OCc1ccccc1)[C@@H](NS(C)(=O)=O)C(=O)N[C@H](C=O)Cc1ccccc1 [Compound 43] (Ms-[dT](Bn)-Phe-aldehyde),68%,7.92,95%,98%,3%,0%,pIC50 ([5]; Table III): 7.24
O=C[C@H](Cc1ccccc1)NC(=O)[C@@H](COCc1ccccc1)NC(=O)c1ccccc1 [Compound 44],100%,6.55,29%,62%,0%,7%,–
O=C[C@H](Cc1ccccc1)NC(=O)[C@@H](COCc1ccccc1)NC(=O)C(c1ccccc1)c1ccccc1 [Compound 45],100%,7.07,55%,100%,5%,7%,–
O=C[C@H](Cc1ccccc1)NC(=O)[C@@H](COCc1ccccc1)NS(=O)(=O)c1ccc(F)cc1 [Compound 46],100%,7.62,90%,100%,6%,15%,–
CN(C)S(=O)(=O)N[C@H](COCc1ccccc1)C(=O)N[C@H](C=O)Cc1ccccc1 [Compound 47],98%,8.05,91%,96%,2%,6%,–
O=C[C@H](Cc1ccccc1)NC(=O)[C@@H](COCc1ccccc1)NS(=O)(=O)c1ccccc1 [Compound 48],100%,7.51,87%,99%,0%,3%,pIC50 ([5]; Table III): 7.96
Cc1ccc(S(=O)(=O)N[C@H](COCc2ccccc2)C(=O)N[C@H](C=O)Cc2ccccc2)cc1 [Compound 49],100%,7.57,75%,99%,1%,4%,–
CCS(=O)(=O)N[C@H](COCc1ccccc1)C(=O)N[C@H](C=O)Cc1ccccc1 [Compound 50],98%,7.92,95%,99%,–,9%,inhibition at 10 µM [2]: 15%
CC(=O)Nc1ccc(S(=O)(=O)N[C@H](COCc2ccccc2)C(=O)N[C@H](C=O)Cc2ccccc2)cc1 [Compound 51],100%,7.49,92%,100%,3%,21%,pIC50 ([5]; Table III): 7.85
O=C[C@H](Cc1ccccc1)NC(=O)[C@@H](COCc1ccccc1)NS(=O)(=O)c1ccc2ccccc2c1 [Compound 52],100%,7.55,93%,100%,0%,10%,pIC50 ([5]; Table III): 8.40
Cn1cnc(S(=O)(=O)N[C@H](COCc2ccccc2)C(=O)N[C@H](C=O)Cc2ccccc2)c1 [Compound 63],100%,7.12,41%,–,40%,1%,–
CC(C)C[C@@H](C=O)NC(=O)[C@@H](CC(C)C)NS(C)(=O)=O [Compound 87],96%,7.02,23%,86%,–,–,–
